Counter-ions that a name gives are not always drawn.

For this assay, the system named is SB.msgc-1. As to the kind of experiment: AC50 for growth inhibition (viability) (log10 M); higher = less potent. The settings on record: SB.msgc-1 (sporadic gastric cancer). The method, boiled down:
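Dosing used a pintool to add 23 nL compound in DMSO to 1536 wells, each with 500 hereditary or sporadic patient-derived gastric cancer cells, across 11 threefold dilutions starting at a final 46 μM. Viability after 48 h was measured by CellTiter-Glo luminescence on a ViewLux. The log half-maximal activity concentration derives from a four-parameter fit of that viability normalised to DMSO, limited to high-quality curve classes.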
As to `CCCCCCCN(CC)CCCC(O)c1ccc(NS(C)(=O)=O)cc1.CCCCCCCN(CC)CCCC(O)c1ccc(NS(C)(=O)=O)cc1.O=C(O)/C=C/C(=O)O` (centres undefined) [Ibutilide fumarate], the “AC50 for growth inhibition (log10 M)” value is -4.68.

For the compound `COC1=CC=C(C=C1)C/2=C(OC3O[C@@H](C)[C@H](O)[C@@H](O)[C@H]3O)/C(=O)C4=C(O2)C(=C(OC5O[C@H](CO)[C@@H](O)[C@H](O)[C@H]5O)C=C4O)CC=C(C)C` (some centres undefined) [Icariin], the “AC50 for growth inhibition (log10 M)” value is -4.93.

On to `CC(=O)N(C)c1cccc(-c2ccnc3c(C(=O)c4cccs4)cnn23)c1` [Indiplon], for which the “AC50 for growth inhibition (log10 M)” value is -4.68.

With `O=C1Nc2ccccc2/C1=C1\Nc2ccccc2C1=O` [Indirubin], the “AC50 for growth inhibition (log10 M)” value was -5.18.

Turning to `C/C=C(/C)C(=O)O[C@H]1C(C)=C[C@]23C(=O)[C@@H](C=C(CO)[C@@H](O)[C@]12O)[C@H]1[C@@H](C[C@H]3C)C1(C)C` [Ingenol mebutate], the “AC50 for growth inhibition (log10 M)” value is -7.18.

As for `CC(C)OC1=CC=C2C(=C1)O\C=C(/C2=O)C3=CC=CC=C3` [Ipriflavone], the “AC50 for growth inhibition (log10 M)” value is -4.78.

Consider `Cc1csc(NC(=O)c2sc3nc4c(c(C(F)(F)F)c3c2N)CCC4)n1` [Irestatin 9389], for which the “AC50 for growth inhibition (log10 M)” value was -4.68.

In the case of `CCn1c(=O)c2c(nc(/C=C/c3ccc(OC)c(OC)c3)n2C)n(CC)c1=O` [Istradefylline], the “AC50 for growth inhibition (log10 M)” value was -4.73.

On to `CCC(C)N1\N=C/N(C1=O)C2=CC=C(C=C2)N3CCN(CC3)C4=CC=C(OC[C@H]5CO[C@@](C[N]6C=NC=N6)(O5)C7=CC=C(Cl)C=C7Cl)C=C4` (some centres undefined) [Itraconazole], for which the “AC50 for growth inhibition (log10 M)” value was -5.58.

Take `COc1cc2c(cc1OC)CC(=O)N(CCCN(C)C[C@H]1Cc3cc(OC)c(OC)cc31)CC2.Cl` [Ivabradine hydrochloride]: the “AC50 for growth inhibition (log10 M)” value was -4.58.

On to `CCOc1ccc(Nc2nc(-c3c(C)nc4ccccn34)cs2)cc1` [JK 184], for which the “AC50 for growth inhibition (log10 M)” value was -6.43.

Turning to `N#CC(c1ccnc(NCCc2cccnc2)n1)c1nc2ccccc2s1` (centres undefined) [JNK Inhibitor V], the “AC50 for growth inhibition (log10 M)” value is -4.73.

Regarding `C[S+](=O)([O-])N(Cc1ccco1)CC(O)Cn1c2ccccc2c2ccccc21` (centres undefined) [KL001], the “AC50 for growth inhibition (log10 M)” value is -4.68.

As for `CCCNC(=O)Nc1ccc(Oc2ncnc3cc(OC)c(OC)cc23)cc1Cl` [KRN-633], the “AC50 for growth inhibition (log10 M)” value is -4.68.

For `O=C/1\C=C(/OC(=C1)/C2=C3SC4=C(SC3=CC=C2)C=CC=C4)N5CCOCC5` [KU-0064], the “AC50 for growth inhibition (log10 M)” value is -4.63.

Regarding `CCc1c(O)cc(O)c(C(=O)c2ccc(OCCN3CCOCC3)c(OC)c2)c1CC(=O)N(CCOC)CCOC` [KW-2478], the “AC50 for growth inhibition (log10 M)” value was -6.58.

`CC(=O)N1CCN(c2ccc(OC[C@H]3CO[C@](Cn4ccnc4)(c4ccc(Cl)cc4Cl)O3)cc2)CC1` [Ketoconazole]: the “AC50 for growth inhibition (log10 M)” value was -4.83.

`CC(C(=O)O)c1cccc(C(=O)c2ccccc2)c1` (centres undefined) [Ketoprofen]: the “AC50 for growth inhibition (log10 M)” value is -5.03.

With `O=C(CS(=O)Cc1ccco1)NC/C=C\COc1cc(CN2CCCCC2)ccn1` (centres undefined) [Lafutidine], the “AC50 for growth inhibition (log10 M)” value is -5.08.

Consider `C[S+](=O)([O-])CCNCc1ccc(-c2ccc3ncnc(Nc4ccc(OCc5cccc(F)c5)c(Cl)c4)c3c2)o1` [Lapatinib], for which the “AC50 for growth inhibition (log10 M)” value is -7.93.

With `C[S+](=O)([O-])c1cc(F)cc2c3c(n(Cc4ccc(Cl)cc4)c12)[C@@H](CC(=O)O)CC3` [Laropiprant], the “AC50 for growth inhibition (log10 M)” value was -5.43.

For the compound `CCC[C@H](Nc1nc(-c2ccc(NC(=O)NCC)c(OC)c2)ncc1C)c1cccnc1` [Lexibulin hydrochloride], the “AC50 for growth inhibition (log10 M)” value is -7.83.

Consider `CC1(C)Cc2c(-c3ccccc3)c(-c3ccc(Cl)cc3)c(CC(=O)O)n2C1` [Licofelone], for which the “AC50 for growth inhibition (log10 M)” value is -4.73.

Turning to `O=NN(CCCl)C(=O)NC1CCCCC1` [Lomustine], the “AC50 for growth inhibition (log10 M)” value is -4.83.

In the case of `CN(C)C(=O)C(CCN1CCC(O)(c2ccc(Cl)cc2)CC1)(c1ccccc1)c1ccccc1` [Loperamide hydrochloride], the “AC50 for growth inhibition (log10 M)” value is -4.78.

Take `Cc1cccc(C)c1OCC(=O)N[C@@H](Cc1ccccc1)[C@@H](O)C[C@H](Cc1ccccc1)NC(=O)[C@H](C(C)C)N1CCCNC1=O` [Lopinavir]: the “AC50 for growth inhibition (log10 M)” value is -4.73.

Regarding `Clc3cc4CCc1cccnc1C(=C2/CCN(CC2)C(=O)OCC)\c4cc3` [Loratadine], the “AC50 for growth inhibition (log10 M)” value is -4.73.

In the case of `CC[C@H](C)C(=O)O[C@H]1C[C@@H](C)\C=C2\C=C/[C@H](C)[C@H](CC[C@@H]3C[C@@H](O)CC(=O)O3)[C@@H]12` [Lovastatin], the “AC50 for growth inhibition (log10 M)” value was -4.73.

For `CCCCC(F)(F)[C@@]1(O)CC[C@H]2[C@@H](CC(=O)[C@@H]2CCCCCCC(=O)O)O1` [Lubiprostone], the “AC50 for growth inhibition (log10 M)” value was -4.78.

As for `Cn1cc(/C=C/C(=O)c2cccc(F)c2)cc1/C=C/C(=O)NO` [MC-1568], the “AC50 for growth inhibition (log10 M)” value was -4.88.

`O=C(O)CCC1CCC(c2cc(F)ccc2F)([S+](=O)([O-])c2ccc(Cl)cc2)CC1` (centres undefined) [MK-0752]: the “AC50 for growth inhibition (log10 M)” value is -4.98.

Turning to `C=CCn1c(=O)c2cnc(Nc3ccc(N4CCN(C)CC4)cc3)nc2n1-c1cccc(C(C)(C)O)n1` [MK-1775], the “AC50 for growth inhibition (log10 M)” value was -6.43.

Take `O=C(O)Cn1nnc(-c2cc(N3CCC(Oc4cc(F)ccc4Br)CC3)no2)n1` [MK-8245]: the “AC50 for growth inhibition (log10 M)” value is -5.48.

With `N[S+](=O)([O-])OC[C@@H]1C[C@@H](n2ccc3c(N[C@H]4CCc5ccccc54)ncnc32)C[C@@H]1O` [MLN-4924], the “AC50 for growth inhibition (log10 M)” value is -5.48.

With `OC(=O)C1=CC=C(NC2=NC3=C(C\N=C(/C4=CC(=CC=C34)Cl)C5=C(F)C=CC=C5F)C=N2)C=C1` [MLN-8054], the “AC50 for growth inhibition (log10 M)” value was -4.78.

In the case of `Cn1cc(-c2ccncc2)c(-c2ccc(OCc3ccc4ccccc4n3)cc2)n1` [MP-10], the “AC50 for growth inhibition (log10 M)” value is -5.13.

For `Cc1ccc(NC(=O)c2ccc(CN3CCN(C)CC3)cc2)cc1Nc1nc(-c2cccnc2)cs1` [Masitinib], the “AC50 for growth inhibition (log10 M)” value is -4.93.

For `C[C@H](Cc1ccc(O)c(O)c1)[C@@H](C)Cc1ccc(O)c(O)c1` [Masoprocol], the “AC50 for growth inhibition (log10 M)” value was -4.83.

Take `COC(=O)Nc1nc2cc(C(=O)c3ccccc3)ccc2[nH]1` [Mebendazole]: the “AC50 for growth inhibition (log10 M)” value was -5.48.

`COc1cccc(OC)c1-c1cc(C(=O)NC2(C(=O)O)C3CC4CC(C3)CC2C4)nn1-c1ccnc2cc(Cl)ccc12` (centres undefined) [Meclinertant]: the “AC50 for growth inhibition (log10 M)” value is -4.68.

Take `Cc1cccc(CN2CCN(C(c3ccccc3)c3ccc(Cl)cc3)CC2)c1` (centres undefined) [Meclizine hydrochloride]: the “AC50 for growth inhibition (log10 M)” value was -4.68.

Consider `CC(=O)O[C@@]1(CC[C@H]2[C@@H]3\C=C(C)/C4=C/C(=O)CC[C@]4(C)[C@H]3CC[C@]12C)C(C)=O` [Megestrol acetate], for which the “AC50 for growth inhibition (log10 M)” value is -5.23.

On to `CC(C)(C)C1=NC2=C([NH]1)C3=CC=C(F)C=C3C4=C2\C=C/NC4=O` [Merck 5], for which the “AC50 for growth inhibition (log10 M)” value is -5.33.

Take `CN(C)[C@H]\1[C@@H]2[C@@H](O)[C@@H]\3C(=C)C4=C(C(=CC=C4)O)C(=O)C3=C(\O)[C@@]2(O)C(=O)\C(=C1O)C(N)=O` [Methacycline hydrochloride]: the “AC50 for growth inhibition (log10 M)” value was -4.73.

Take `C[C@]12CCC(=O)C=C1CC[C@@H]1[C@@H]2CC[C@@]2(C)[C@H]1CC[C@]2(C)O` [Methyltestosterone]: the “AC50 for growth inhibition (log10 M)” value was -4.42.

Consider `C\C1=C(\C=C(\C#N)C(=O)N1)C2=CC=NC=C2` [Milrinone], for which the “AC50 for growth inhibition (log10 M)” value was -4.73.

For `CN(c1nccc(=O)[nH]1)C1CCN(c2nc3ccccc3n2Cc2ccc(F)cc2)CC1` [Mizolastine], the “AC50 for growth inhibition (log10 M)” value was -4.53.

Consider `Nc1ccccc1NC(=O)c1ccc(CNc2nccc(-c3cccnc3)n2)cc1` [Mocetinostat], for which the “AC50 for growth inhibition (log10 M)” value was -5.93.

With `O=C(CCCN1CCN(c2ccc(F)cc2)CC1)NC1c2ccccc2CSc2ccccc21` (centres undefined) [Monatepil], the “AC50 for growth inhibition (log10 M)” value was -5.23.

Turning to `N=C(N)NC(=N)N1CCOCC1` [Moroxydine], the “AC50 for growth inhibition (log10 M)” value is -4.78.

Regarding `Cc1c(C(=O)Nc2ccc(N3C[C@@H](C)O[C@@H](C)C3)nc2)cccc1-c1ccc(OC(F)(F)F)cc1` [NVP-LDE-225], the “AC50 for growth inhibition (log10 M)” value is -4.83.

For the compound `Oc1nc(-c2ccc(C(F)(F)F)cc2)nc2c1CSCC2` [NVP-XAV-939], the “AC50 for growth inhibition (log10 M)” value was -4.68.

In the case of `C[C@@H]1C/C=C/C=C/C=C/C=C/[C@@H](O[C@@H]2O[C@H](C)[C@@H](O)[C@H](N)[C@@H]2O)C[C@@H]2O[C@](O)(C[C@@H](O)C[C@@H]3O[C@H]3/C=C/C(=O)O1)C[C@H](O)[C@H]2C(=O)O` [Natamycin], the “AC50 for growth inhibition (log10 M)” value is -5.23.

Regarding `Cl.O[C@@H](CNC[C@H](O)[C@H]1CCc2cc(F)ccc2O1)[C@@H]1CCc2cc(F)ccc2O1` [Nebivolol], the “AC50 for growth inhibition (log10 M)” value was -4.93.

Consider `NC(=O)N/N=C/c1ccc([N+](=O)[O-])o1` [Nitrofurazone], for which the “AC50 for growth inhibition (log10 M)” value is -4.68.

Take `COC(=O)Nc1nc2cc(C(=O)c3cccs3)ccc2[nH]1` [Nocodazole]: the “AC50 for growth inhibition (log10 M)” value is -7.98.

Take `O=C(Nc1ccc(OC(F)(F)F)cc1)c1sccc1NCc1ccnc2ccccc12` [OSI-930]: the “AC50 for growth inhibition (log10 M)” value was -4.73.

Turning to `CCCCCCCCOc1ccccc1C(=O)Nc1ccc(C(=O)OCC[N+](C)(CC)CC)cc1` [Octylonium bromide], the “AC50 for growth inhibition (log10 M)” value is -4.68.

`CC1COC2=C3N1\C=C(C(O)=O)/C(=O)C3=CC(=C2N4CCN(C)CC4)F` (centres undefined) [Ofloxacin]: the “AC50 for growth inhibition (log10 M)” value is -4.73.

The values are drawn from the supplement of paper PMC5412046.
